{"source": "patent US7396835B2", "about": "“Process for the preparation of tubulin inhibitors” (Wyeth, priority 2003, dated 2008)", "assay": "Water uptake and stability of the succinate salt under relative humidity", "type": "physicochemical", "settings": "about 20° C. to about 30° C.", "procedure": "To a suspension of NaH (40.9 g, 1.02 mol, 60% in oil) in anhydrous THF (750 mL) is added 3-methylamino-propan-1-ol (115 g, 1.21 mol) at about 20-30° C. dropwise over 30 min. The mixture is stirred for 30 min. Then, a solution of [5-chloro-6-(2,4,6-trifluoro-phenyl)-[1,2,4]triazolo[1,5-a]pyrimidin-7-yl]-((1S)-2,2,2-trifluoro-1-methyl-ethyl)-amine (150 g, 0.379 mol) in THF (150 mL) is added slowly over 15 min. The mixture is heated to 60° C. and stirred for 16 h, then cooled to 0-6° C. Cold water (1500 mL) is added dropwise while maintain the temperature between 10±3° C. THF is removed by distillation. The reaction mixture is extracted with t-butylmethyl ether (TBME, 2×1000 mL) and to the separated aqueous phase is added in portions succinic acid (296 g, 2.51 mol) is added in portions and followed by addition of TBME (1000 mL). The mixture is cooled to 3±3° C. and stirred for 1 h. The crude solid product is filtered, washed with cold water (150 mL) and TBME (2×400 mL). The wet solid is dissolved into water (2000 mL) at about 75° C. The solution is filtered at 60-70° C. and cooled to 0° C. over 1 h and stirred for 1 h at this temperature. The solid is filtered and dried at 35° C./10 mmHg for 20 h to give a white solid in anhydrous form (175 g, 80%, >99% HPLC area purity and 99% ee). […]", "note": "Counter-ions that a name gives are not always drawn.", "data": [{"compound": "CNCCCOc1cc(F)c(-c2c(Cl)nc3ncnn3c2N[C@@H](C)C(F)(F)F)c(F)c1", "note": "[Example 4, 5-Chloro-6-{2,6-difluoro-4-[3-(methylamino)propoxy]phenyl}-N-[(1S)-2,2,2-trifluoro-1-methylethyl][1,2,4]triazolo[1,5-a]pyrimidin-7-amine Succinate Salt Dihydrate]", "values": [{"measurement": "stability of the dihydrate", "setting": "5%-100% relative humidity", "value": "stable"}, {"measurement": "water absorbed by the anhydrous compound", "setting": "anhydrous succinate salt, drying dish of 80%-100% relative humidity, 24 h, uptake then stopped", "value": 5.8, "unit": "% wt"}]}]}
